In brackets after ≈: the same amount, converted by molar mass. Where two headings read alike, the source gives them in different places.
Tests used:
[1] = Hu Mic Clint; type: in vitro ADME, human; details: for microsomal CLint: human, microsomes
[2] = In vitro rat hepatocytes clearance assay; type: in vitro ADME
Experimental: (§1) In Vitro Rat/Human Hepatocytes Clearance Assay
(§2) Rat hepatocytes in male gender and human hepatocytes in mixed gender were obtained from commercial vendors (e.g., BioreclamationIVT) and stored at −150° C. prior to use. 10 mM stock solutions of tested compounds were prepared in DMSO. Thawing medium and supplement incubation medium (serum-free) were placed in a 37° C. water bath for at least 15 minutes prior to use. Stock solutions were diluted to 100 μM by combining 198 μL acetonitrile and 2 μL of 10 mM stock solution.
(§3) Vials of cryopreserved hepatocytes were removed from storage, ensured that vials remain at cryogenic temperatures. The vials were thawed in a 37° C. water bath with gently shaking. Vials were kept in a water bath until all ice crystals had dissolved and were no longer visible. Vials were sprayed with 70% ethanol before being transferred to a biosafety cabinet. And then the contents were poured into the 50 mL thawing medium conical tube. Vials were centrifuged at 100 g for 10 minutes at room temperature. Thawing medium was aspirated and hepatocytes were resuspended with serum-free incubation medium to yield ^˜1.5×10^6 cells/mL.
(§4) Cell viability and density were counted using a Trypan Blue exclusion, and then cells were diluted with serum-free incubation medium to a working cell density of 1×10^6 viable cells/ml. A portion of the hepatocytes at 1×10^6 viable cells/mL was boiled for 10 min prior to adding to the plate as negative control to eliminate the enzymatic activity so that little or no substrate turnover should be observed. The inactivated hepatocytes were used to prepare negative samples, which were used to exclude the misleading factor that resulted from instability of chemical itself.
(§5) Aliquots of 247.5 μL hepatocytes were dispensed into each well of a 96-well non-coated plate. The plate was placed in the incubator on an orbital shaker for approximately 10 minutes. Aliquots of 2.5 μL of the 100 μM test compounds were added into respective wells of the non-coated 96-well plate to start the reaction. This assay was performed in duplicate. The plate was incubated in the incubator on an orbital shaker for the designed time points. 20 μL of contents were transferred and mixed with 6 volumes (120 μL) of cold acetonitrile with internal standard to terminate the reaction at time points of 5, 15, 30, 45, 60, 80 and 100 minutes. Samples were centrifuges for 20 minutes at 4000 g and aliquots of 100 μl of the supernatants were used for LC-MS/MS analysis for measurement of test compounds.
(§6) In vitro hepatocyte clearance was estimated based on determination of elimination half-life (T1/2) of compounds disappearance from their initial concentrations. Peak area ratios of each compound (test or control) to IS was calculated. Ln (% Control) versus Incubation Time (min) curve was plotted, and the slope of a linear fitting line was calculated. Drug elimination rate constant k (min-1), T1/2 (min), and in vitro intrinsic clearance CLint (μL/min/E6) was calculated according to the following equations: k=−slope T1/2=0.693/k CLint=k/Chep • Where Chep (cells×μL-1) is the cell concentration in the incubation system. Procedure for Log D Determination

[3] = biological target: T1, Recombinant BTK wild type (BTK WT) (Homo sapiens, UniProt Q06187); assay: BTK WT HTRF kinase assay; type: biochemical; details: 30 min pre-incubation, 120 min reaction
T1 construct: purchased Thermo fisher
Experimental: (§7) Recombinant BTK wild type (BTK WT) was purchased from Thermo fisher.
(§8) In brief, recombinant kinases were pre-incubated in the presence or absence of compound at room temperature for 30 minutes. The reaction was initiated by the addition of the ATP and substrate peptide which could be phosphorylated by kinases in the reaction. After 120 minutes incubation, the reaction was stopped by the addition of the detection reagent mix containing EDTA.

[4] = In vitro human hepatocytes clearance assay; type: in vitro ADME
Experimental: as §1, §2, §3, §4, §5, §6

[5] = DMSO solubility; type: physicochemical
[6] = Log D determination (octanol/phosphate buffer); type: physicochemical; details: 25° C.
Experimental: 10 μL of working solution of each cassette is placed in order into respective 96-well rack position (Log D plate). Add 500 μL of saturated octanol into each vial of the above cap-less Log D plate followed by the addition of 500 μL of saturated phosphate buffer. Seal with a moulded PTFE/SIL 96-Well Plate Cover.
The samples are centrifuged at 4,000 rpm at 25° C. for 30 minutes to separate the phases. Pipette and syringe are used to pipette about 100 μL from the octanol and buffer phases to a new 96-well plate, respectively.
5 μL of octanol sample is transferred to a new 96-well plate, followed by addition of 495 μL of a mixture of H2O and acetonitrile containing internal standard (1:1) as 100 fold octanol samples. Vortex for 5 minutes at 1,000 rpm.
50 μL of 100 fold samples are transferred to new 96-well plate, followed by addition of 450 μL of a mixture of H2O and acetonitrile containing internal standard (1:1) as 1,000 fold octanol samples. Vortex for 5 minutes at 1,000 rpm.
The 1,000 folds octanol samples are serially diluted into 10,000, 100,000 and 1,000,000 folds with a mixture of H2O and acetonitrile containing internal standard (1:1).
50 μL of buffer samples are transferred to new 96-well plate, followed by addition of 450 μL of a mixture of H2O and acetonitrile containing internal standard (1:1) as 10 folds buffer samples. Vortex for 5 minutes at 1,000 rpm.
The 10 folds buffer samples are serially diluted into 100, 1,000 and 10,000 folds with a mixture of H2O and acetonitrile containing internal standard (1:1). The samples are evaluated by LC/MS/MS analysis. All compounds are tested in singlicate.
All calculations are carried out using Microsoft Excel. The concentrations of test compound in octanol/buffer solution are evaluated by LC/MS/MS. Calculate the Log D value of the test compound as follows:
[formula] DF means the dilution factor. Procedure for Protein Binding Measurements in Human Plasma by Using Equilibrium Dialysis

[7] = biological target: T2, p-BTK (Phospho-Btk Tyr223) in TMD-8 cells (Homo sapiens, UniProt Q06187); assay: TMD8 cell line p-BTK Elisa assay; type: cell-based; details: for Maximal Inhibition Level: p-BTK ELISA; for IC50: pervanadate 100 μM, Tyr223 ELISA
T2 construct: endogenous in cells; host or cells: TMD-8
Experimental: The test compounds were added to the cells and cells were incubated for 0.5 hour at 37° C., 5% CO2. Then pervanadate solution was added to the cells to make a final concentration of 100 μM, and cells were incubated for a further 1 hour at 37° C., 5% CO2. […] The plate was read on a Multiscan Spectrum reader set to 450 nm wavelengths.

[8] = biological target: T3, Recombinant BTK(C481S) (Homo sapiens, UniProt Q06187, C481S); assay: BTK C481S HTRF kinase assay; type: biochemical; details: 30 min pre-incubation, 120 min reaction
T3 construct: purchased SignalChem
Experimental: [The procedure below names another variant; the source lists this variant under the same test.] as §7, §8

T1 sequence (Q06187 whole entry): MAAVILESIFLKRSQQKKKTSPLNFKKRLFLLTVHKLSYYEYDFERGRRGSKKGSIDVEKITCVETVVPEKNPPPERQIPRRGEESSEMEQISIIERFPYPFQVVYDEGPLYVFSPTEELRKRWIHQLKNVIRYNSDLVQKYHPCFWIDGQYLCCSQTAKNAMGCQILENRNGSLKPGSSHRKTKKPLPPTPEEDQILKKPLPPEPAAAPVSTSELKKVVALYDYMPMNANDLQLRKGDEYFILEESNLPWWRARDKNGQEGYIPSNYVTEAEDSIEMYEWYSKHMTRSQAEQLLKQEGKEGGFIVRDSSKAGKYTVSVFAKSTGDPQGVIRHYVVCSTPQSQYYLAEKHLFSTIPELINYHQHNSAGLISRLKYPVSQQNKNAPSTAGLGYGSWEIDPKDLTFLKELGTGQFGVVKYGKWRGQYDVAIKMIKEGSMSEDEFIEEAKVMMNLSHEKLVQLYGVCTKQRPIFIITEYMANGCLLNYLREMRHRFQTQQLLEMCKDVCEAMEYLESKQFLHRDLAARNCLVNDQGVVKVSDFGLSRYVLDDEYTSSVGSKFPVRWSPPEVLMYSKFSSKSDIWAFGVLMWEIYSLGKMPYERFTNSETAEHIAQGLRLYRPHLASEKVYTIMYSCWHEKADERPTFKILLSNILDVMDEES
T2 sequence (Q06187 whole entry): as above
T3 sequence (Q06187 whole entry C481S): as the sequence (Q06187 whole entry) above, with C481S counted along it

Hu Mic Clint [1] [µL/min/mg]	Rat Hep Clint [2] [μL/min/10∧6 cells]	IC50 [3] [nM]	Human Hep Clint [4] [μL/min/10∧6 cells]	solubility [5] [µM]	logD [6]	Maximal Inhibition Level [7] [%]	IC50 [7] [nM]	IC50 [8] [nM]	microsomal CLint [1] [µL/min/mg]	solubility ([5]; kinetic from dmso stock) [µM]	logD at 2 h [6]	Compound
9.3	11.7	4.51	3.6	<1.6	3.09	99.3	34.7	5.03	–	–	–	Nc1ncnn2c(C3CCC(CO)OC3)nc(-c3ccc(Oc4ccccc4)cc3F)c12 (single isomer, unassigned) [Compound 11, Trans-(5-(4-amino-5-(2-fluoro-4-phenoxyphenyl)imidazo[5,1-f][1,2,4]triazin-7-yl)tetrahydro-2H-pyran-2-yl)methanol]
–	8.2	0.62	2.1	–	–	98.8	26.2	0.42	8.8	43.9 (≈ 19.9 µg/mL)	3.28	Nc1nccn2c(C3CCC(CO)OC3)nc(-c3ccc(Oc4cccc(F)c4F)cc3)c12 (single isomer, unassigned) [Compound 6, (5-(8-amino-1-(4-(2,3-difluorophenoxy)phenyl)imidazo[1,5-a]pyrazin-3-yl)tetrahydro-2H-pyran-2-yl)methanol]
23.7	8.8	6.29	12.9	34.1 (≈ 14.8 µg/mL)	2.88	96.2	78.4	6.59	–	–	–	Nc1nccn2c(C3CCC(CO)OC3)nc(-c3ccc(Oc4ccccc4)cc3F)c12 (single isomer, unassigned) [Compound 3, Trans-(5-(8-amino-1-(2-fluoro-4-phenoxyphenyl)imidazo[1,5-a]pyrazin-3-yl)tetrahydro-2H-pyran-2-yl)methanol]
–	9.48	0.7	2.5	–	–	98.0	24.3	0.86	< 3	48 (≈ 21.8 µg/mL)	3.29	Nc1ncnn2c(C3CCC(CO)OC3)nc(-c3ccc(Oc4cccc(F)c4F)cc3)c12 (stereo not drawn) [Compound 14, (5-(4-amino-5-(4-(2,3-difluorophenoxy)phenyl)imidazo[5,1-f][1,2,4]triazin-7-yl)tetrahydro-2H-pyran-2-yl)methanol]
